Data on nine compounds can be found in US5877185A, “Synergistic compositions useful as anti-tumor agents” (priority 1995, dated 1999).

Read-outs that look alike come from different tables or passages of the source.

The test system of one series is E ras cells. The series is described as follows: cytostatic and cytocidal activity. It is filed as cell-based, bovine. The conditions noted are these: for cytostatic and cytocidal effects: at the concentrations given above; for IC50: Bos taurus, average of three trials. From the text: pADPRT ligands that oxidize CCHC zinc fingers are not unique inhibitors of pADPRT. […] Hakam et al., FEBS Lett. 193:1-4 (1991). These ligands bind non-covalently to the nicotinamide site and internal DNA-seeking domains of pADPRT. Bauer et al., manuscript in preparation (1994). In contrast, CCHC-oxidizing ligands also bind non-covalently to the nicotinamide site, but initially attack the F1 zinc finger oxidatively. Id. […] Id. […] U.S. Ser. No. 08/076,313 filed Jun. 11, 1993.
Each value is the average of three trials. Each trial deviated from the average by no more than twenty percent. […] Another isomer of the iodo-nitro-benzamide series, 2-iodo-4-nitrobenzamide had no effect at the concentrations given above.

The next series relates to MT-2 cells. Kind of series: effectiveness on human T-lymphoblastoid leukemia cells, MT-2. It is filed as cell-based. Particulars: for IC50: Homo sapiens, MT2, concentration decreasing cell viability to 50% of control, 48 h incubation, read-out: I50; for LD100: zero viability after 48 hours of incubation. How it is done: (§1) IV. Effectiveness of 4-(halogen)-3-nitro-benzamide compounds as tested with human T-lymphoblastoid leukemia cell lines in culture.
(§2) Cells (MT-2 cells, or, in case of 3-fluoro-4-nitro-benzamide, CEM-4 cells) were seeded at a density of 0.1×10^5 /ml; the drugs were added at the time of seeding. The cultures were incubated at 37° C. in a 5% CO2 atmosphere and the cells numbers were monitored by hemacytometer counting in 24 hr intervals.

The subject of the next series is CEM-4 cells. The series is described as follows: effectiveness on human T-lymphoblastoid leukemia cells, CEM-4. It is filed as cell-based. The method, then:
as §1, §2

Series [1] concerns L-1210 Murine Leukemia Cells. The series is described as follows: effect of nitroso- and nitro-compounds in L-1210 murine leukemia cells (suspension). It is filed as cell-based. The conditions noted are these: drug exposure 18 hours. How it is done: II. I50 and LD100 Values for Nitroso- and Nitro-Compounds in (A) Mammary Cancer Cells (monolayer cultures) and in (B) L-1210 Murine Leukemia Cells (suspension culture).
Cells were seeded at 5×10^4 to 2×10^5 /ml; drugs were added at the time of seeding; drug exposure was for 18 hours.

The test system of a further series is Molt-4 cells. The series is described as follows: time course of cell killing alone and with BSO, Molt-4. The conditions noted are these: Molt-4, 2-3 day period; 4 μM drug, 1 mM BSO. It is filed as cell-based. The method, then:
(§3) Molt 4-cells were seeded at a density of 0.05×10^6 cell/ml in the recommended growth medium in the absence or the presence of drugs as indicated. Cells were incubated at 37° C. in a 5% CO2 atmosphere and proliferation was monitored in 14 hr. by cell counting in a hemacytometer. .smallcircle., untreated control; .circle-solid., treated with 4 μM 4-iodo-3-nitrobenzoic acid; .gradient., treated with 1 mM BSO; .tangle-soliddn., treated with 4 μM-iodo-3-nitrobenzoic acid and 1 mM BSO; .quadrature., treated with 4 μM 4-INO2 BA; .box-solid., treated with 1 mM BSO; .gradient., treated with 4 μM INO2 BA and 1 mM BSO. L-1210 cells were seeded at a density of 0.05×10^6 cells/ml either from untreated stock suspensions or from 24-hr. pretreated (0.2×10^6 cells/ml) suspensions. .smallcircle., untreated control; .circle-solid., treated with […] NOBA; .gradient., treated with 1 mM BSO; .tangle-soliddn., 24-hr pretreatment with 1 mM BSO then treated with 4 μM NOBA.
(§4) A time course of the cell killings by 4-iodo-3-nitrobenzoic acid, INO2 BA and NOBA, each alone and in combination with BSO was obtained. Molt-4 cells were seeded at a density of 0.05×10^6 cells/ml in the recommended growth medium in the absence or presence of drugs as indicated in FIG. 3. Drugs were added to the wells immediately after seeding from 10-40 mM stock solution in DMSO. BSO was added from a 100 mM aqueous stock solution. Cells were incubated at 37° C. in a 5% CO2 atmosphere and proliferation was monitored in 14 hours by cell counting in a hemacytometer.

The next series concerns L-1210 cells. Kind of series: time course of cell killing alone and with BSO, L-1210. The conditions noted are these: L-1210, 2-3 day period; 1 mM BSO. It is filed as cell-based, murine. How it is done: as §3, §4
In a further series the test system is AA-2 leukemia cells. The series is described as follows: cytocidal effect in combination with ascorbate. How it is done: Because of the in vitro reactivity of the nitroso group of INOBA with both ascorbate and GSH, the apoptosis-inducing effect of NOBA with the action of the prodrug INO2 BA in the presence of ascorbate, added simultaneously with both drugs was compared.
AA-2 cells were seeded at a density of 0.2×10^6 cells/ml. Drugs and/or sodium ascorbate were added at the time of seeding, and cells were counted by hemacytometer after incubation (37° C., 5% CO^2) for 18 hr (Day 1) and for 42 hr (Day 2). Viability was evaluated by Trypan Blue exclusion.

The next series deals with HIV-1 (LAV strain). Kind of series: in vitro anti-retroviral testing (HIV-1 inactivation) in human peripheral lymphocytes (PBL). It is filed as cell-based. The method, then:
Both 6-NOBP and NOBA were tested on viral growth of HIV-1 (LAV strain) in phytohemagglutinin-stimulated human peripheral lymphocytes (PBL). An HIV-1 stock having an infectivity titer of 100,000 TCID50 was incubated for 30 min. at 22° C. with either of the drugs. Control HIV samples, containing no drugs, were incubated in the same manner. […] At the end of this incubation cultures were assayed for productive infection by an immunoassay for HIV-1 antigens and by reverse transcriptase as described in McDougal et al., J. Immunol. Methods 76:171-183 (1985). Virus titers were expressed as percentile values (percent infected cultures) compared to the controls, containing HIV dilutions which were not preincubated with the C-nitroso drugs. In a separate series of experiments, HIV-1 dilutions and C-nitroso drugs (see upper abscissa) were not preincubated but were added simultaneously to lymphocytes in exactly the same concentrations as described previously (i.e., following preincubation) and viral growth monitored 9 days later.

The nature of series [2]: solubility and stability of nitro versus nitroso compound. It is filed as physicochemical.
For series [3], the system named is leukemic and other malignant human cells. The conditions noted are these: cited from earlier work.
In series [4] the test system is normal bone marrow progenitor cells. Particulars: tumoricidal concentrations; cited from earlier work.
The test system of a further series is neutrophil granulocytes. The conditions noted are these: tumoricidal concentrations; cited from earlier work.
The subject of series [5] is human immunodeficiency virus HIV-1. The conditions noted are these: human lymphocytes; cited from earlier work.
The test system of another series is HIV-1 NC zinc fingers. The conditions noted are these: isolated HIV-1 NC zinc fingers and intact HIV-1 virions; cited from earlier work.

In the case of `NC(=O)c1ccc([N+](=O)[O-])cc1I` [2-iodo-4-nitrobenzamide], the “cytostatic and cytocidal effects” value with E ras cells is “no effect”.

On to `NC(=O)c1cc([N+](=O)[O-])ccc1I` [2-iodo-5-nitrobenzamide], for which the IC50 was found to be 12 µM with E ras cells (E ras cells, read-out: Cytostatic Effect I50) and 2 µM with E ras cells (with 0.8 mM BSO, read-out: Cytocidal Effect I50). For the same compound, the “cytostatic and cytocidal effects” value with E ras cells is “more effective of the two isomers”.

As for `NC(=O)c1ccc(Br)c([N+](=O)[O-])c1` [4-bromo-3-nitro-benzamide], in the series with MT-2 cells, the IC50 was 120 µM and the LD100 is recorded as 290.

Turning to `NC(=O)c1ccc(Cl)c([N+](=O)[O-])c1` [4-chloro-3-nitro-benzamide], in the series with MT-2 cells, the IC50 stood at 130 µM and the LD100 was determined as 300.

With `NC(=O)c1ccc(F)c([N+](=O)[O-])c1` [4-fluoro-3-nitro-benzamide], the IC50 with CEM-4 cells (Homo sapiens, concentration decreasing cell viability to 50% of control, read-out: I50) turned out to be 120 µM. For the same compound, the LD100 in the series on CEM-4 cells (zero viability after 48 hours of incubation) is 280.

In series [1], `O=C(O)c1ccc(I)c([N+](=O)[O-])c1` [4-iodo-3-nitrobenzoic acid] came in with an I50 of 16 nanomoles/10^5 cells and an LD100 of 32 nanomoles/10^5 cells. In the series with Molt-4 cells, the “effect on cell proliferation” value was “no significant effect”. The “effect on cell proliferation” value with L-1210 cells is on record as “no significant effect”.

With `O=C1O[C@H]([C@@H](O)CO)C([O-])=C1O.[Na+]` [Ascorbate, sodium ascorbate, reference compound], the “effect on AA-2 leukemia cells by itself” value in the series with AA-2 leukemia cells (160 μM) is reported as “no effect”. Also, the “cell number Day 1” value in the series on AA-2 leukemia cells (ascorbate 160 μM, 18 hr) amounted to 480000 mL⁻¹. Besides, the “cell number Day 2” value in the series on AA-2 leukemia cells (ascorbate 160 μM, 42 hr) is 900000 mL⁻¹.

In [1], `O=c1ccc2cc([N+](=O)[O-])ccc2o1` [NO2 BP, 6-Nitro-1,2-benzopyrone] gave an I50 of 35 nanomoles/10^5 cells and an LD100 of 80 nanomoles/10^5 cells. In the series with HIV-1 (LAV strain), the “inhibition of HIV-1 activity in human lymphocytes” value turned out to be 52%. Moreover, the “TCID50 (calculated infectious titer after treatment)” value in the series with HIV-1 (LAV strain) (500 μM) is reported as 85,114 TCID50. This compound had an inhibition at 500 µM in the series with HIV-1 (LAV strain) (Human immunodeficiency virus 1, Lymphocyte) of 52.1%. Besides, in the series on HIV-1 (LAV strain) (Human immunodeficiency virus 1, Lymphocyte, 0.5 h, read-out: Decrease), the log reduction at 500 µM was 0.32. Besides, the stability and solubility result in [2] is “more stable and soluble than the active nitroso compound”.

On to `O=Nc1ccc2oc(=O)ccc2c1` [NOBP, 6-nitroso-1,2-benzopyrone], for which, in the series with HIV-1 (LAV strain) (100 μM), the “TCID50 (calculated infectious titer after treatment)” value is reported as 102 TCID50. The log reduction at 100 µM in the series with HIV-1 (LAV strain) (Human immunodeficiency virus 1, Lymphocyte, 0.5 h, 100 μM, of TCID50, read-out: Decrease) worked out at 3.24. The inhibition at 100 µM in the series with HIV-1 (LAV strain) (Human immunodeficiency virus 1, Lymphocyte, 100 μM) stood at 99.9%. In series [2], the stability and solubility entry was “poorly soluble”. In series [3], the suppression of proliferation result is “completely suppressed”. For the same compound, the “effect on normal bone marrow progenitor cells” value in series [4] is given as “relatively harmless”. Moreover, the “effect on superoxide formation by neutrophil granulocytes” value in the series on neutrophil granulocytes is given as “relatively harmless”. Further, the “inhibition of HIV-1 infection” value in series [5] is on record as “inhibit infection”. In addition, the zinc ejection result in the series with HIV-1 NC zinc fingers was “eject zinc”.
